{
  "source": "patent US7485661B2",
  "about": "“Heterobicyclic pyrazole derivatives as kinase inhibitors” (Pfizer Italia S.r.l., priority 2005, dated 2009)",
  "data": [
    {"smiles": "CCOC(=O)c1cc2[nH]nc(N)c2s1", "note": "[Compound 6, Ethyl 3-amino-1H-thieno[3,2-c]pyrazole-5-carboxylate]", "values": [
      {"measurement": "melting point", "result": "231 to 233", "unit": "°C"}
    ]}
  ]
}
